According to paper PMC5908295 (Oncotarget, 2018):

Assays:
[1] = Metabolic stability, liver S9 fraction; assay type: in vitro ADME; conditions: Mouse, 37 °C, read-out: Liver S9 fraction t1/2 (converted)
[2] = Metabolic stability, liver microsomes; assay type: in vitro ADME; conditions: Mouse, 37 °C, read-out: Liver microsomes t1/2 (converted)
[3] = biological target: FLT3 (N841I) (Homo sapiens, UniProt P36888, N841I); assay: KINOMEscan Kd, specific screen against FLT3 mutants; assay type: binding
Protocol: (§1) Dissociation constants (Kd) and inhibition levels of FLT3 mutants were measured at DiscoverX using the KINOMEscan^TM Profiling Service (KdELECT).

[4] = biological target: FLT3 (ITD, F691L) (Homo sapiens, UniProt P36888, F691L/ITD); assay: as above; assay type: binding
Protocol: as §1

[5] = biological target: FLT3 (D835Y) (Homo sapiens, UniProt P36888, D835Y); assay: as above; assay type: binding
Protocol: as §1

[6] = biological target: FLT3 (K663Q) (Homo sapiens, UniProt P36888, K663Q); assay: as above; assay type: binding
Protocol: as §1

[7] = biological target: FLT3 (D835V) (Homo sapiens, UniProt P36888, D835V); assay: as above; assay type: binding
Protocol: as §1

[8] = biological target: FLT3 (R834Q) (Homo sapiens, UniProt P36888, R834Q); assay: as above; assay type: binding
Protocol: as §1

[9] = biological target: FLT3 (D835H) (Homo sapiens, UniProt P36888, D835H); assay: as above; assay type: binding
Protocol: as §1

[10] = biological target: FLT3 (ITD) (Homo sapiens, UniProt P36888, ITD); assay: as above; assay type: binding
Protocol: as §1

[11] = biological target: FLT3 (ITD, D835V) (Homo sapiens, UniProt P36888, D835V/ITD); assay: as above; assay type: binding
Protocol: as §1

[12] = test system: MOLM-16 (FLT3-WT) cells; assay: Western blot of FLT3/PIM downstream signaling; assay type: cell-based; conditions: MOLM-16, 4 hours
Protocol: (§2) Thereafter, we assessed the activities of FLT3-ITD – induced key pro-survival signaling pathways; STAT5, RAF/MEK/ERK and PI3K/AKT (Figure 3). […] Since the expression of a major anti-apoptotic BCL2 family member, MCL1, is regulated by translation, and PIM kinases regulate protein synthesis through 4EBP1, we also assessed the abundance of MCL1.
(§3) Cells were collected, washed twice with cold PBS, and lysed in RIPA buffer and kept on ice for 10 min. Tumor specimens from xenograft studies were homogenized in RIPA buffer using OMNI TH Tissue Homogenizer and kept on ice for 30 min. After incubation, cell and tumor lysates were centrifuged at 13,000×g at 4°C for 10 min and the supernatants were stored at −80°C until use. Protein concentration was measured using the Bradford method. For SDS-PAGE, 50 μg of protein in the Laemmli sample buffer was loaded onto 10% polyacrylamide gels and electrophoresed. Thereafter, proteins were transferred onto polyvinylidene fluoride (PVDF) membranes (Millipore). After blocking with 5% non-fat dry milk/TBS-T or 2% BSA/TBS-T, membranes were incubated with specific primary antibodies (listed in Supplementary Table 2) at 4 °C overnight. After extensive washing in PBS-T, membranes were incubated for 60 min with appropriate secondary peroxidase-conjugated IgG. The immunoreactive proteins were detected using an enhanced chemiluminescence (ECL) substrate (GE Healthcare) and visualized with Hyperfilm-ECL (GE Healthcare Biosciences).

[13] = test system: MV-4-11 (FLT3-ITD+) cells; assay: Western blot of FLT3/PIM downstream signaling; assay type: cell-based; conditions: MV-4-11, 4 hours
Protocol: as §2, §3

[14] = test system: MOLM-14; assay: MTS viability assay, 72 h; conditions: Homo sapiens, MOLM-14, 72 h
Protocol: (§10) 15-25 ×10^3 of MV-4-11, MOLM-13, MOLM-14, MOLM-16, KG-1, Eol-1, SKM-1, PL-21, GDM-1, SKNO-1, RS4;11, Kasumi-3 and Kasumi-6 cells were seeded in 150 μL of culture medium onto individual wells in a 96 well plates, in triplicates. On the same day, 50 μL of medium containing tested inhibitor was added to the wells. Each compound was tested at 8 concentrations, in triplicates. As a negative control, the medium containing 0.1% DMSO was used. […] Staurosporine was used at 10 μM as a positive control. One the day of drug addition, basal signal from untreated cells was measured from in triplicate to determine time zero (T0). […] GI50 and LC50 values were extrapolated from a variable (four-parameter) dose-response curve fitted in GraphPad Prism.

[15] = test system: SKNO-1; assay: MTS viability assay, 72 h; conditions: SKNO-1, 72 h
Protocol: as §10

[16] = Pharmacokinetics after oral and intravenous administration; assay type: in vivo, dogs (Beagle); conditions: male, Beagle, plasma, Dog, Dose PO/IV 5/1 mg/kg
Protocol: therapeutic potential in acute myeloid leukemia
sheet for further calculations.
Three male Beagle dogs were administered

[17] = test system: MOLM-14 cells transduced with FLT3 TKD point mutations (D835Y, D835V and F691L); assay: MTS viability of MOLM-14 cells with FLT3 alleles; assay type: cell-based; conditions: 72 h
[18] = test system: RS4;11; assay: MTS viability assay, 72 h; conditions: Homo sapiens, RS4-11, 72 h
Protocol: as §10

[19] = Metabolic stability, liver S9 fraction; assay type: in vitro ADME; conditions: Human, 37 °C, read-out: Liver S9 fraction t1/2 (converted)
[20] = Metabolic stability, liver microsomes; assay type: in vitro ADME; conditions: Rat, 37 °C, read-out: Liver microsomes t1/2 (converted)
[21] = test system: KG-1; assay: MTS viability assay, 72 h; conditions: Homo sapiens, KG-1, 72 h
Protocol: as §10

[22] = biological target: T1, CYP2C19 (Homo sapiens, UniProt P33261); assay: CYP isoforms inhibition; assay type: in vitro ADME; conditions: 5-dose, 3-fold dilution starting at 30 µM
T1 construct: Cambridge Bioscience Limited (ran the assay)
Protocol: (§4) or absence of enzyme cofactors. The assay was performed microsomes. (Supplementary Table 7).
(§5) with the respective reference samples (i.e. without measured at Cambridge Bioscience Limited (except
(§6) cofactors). After incubation, drug transformation by liver CYP1A2 inhibition which was measured in-house). […]
(§7) The control compound
(§8) The analysis of two standard compounds (i.e. positive a very weak potential for CYP inhibition with IC50
(§9) and negative controls) was included. […]

[23] = biological target: T2, CYP2D6 (Homo sapiens, UniProt P10635); assay: CYP isoforms inhibition; assay type: in vitro ADME; conditions: 5-dose, 3-fold dilution starting at 30 µM
T2 construct: Cambridge Bioscience Limited (ran the assay)
Protocol: as §4, §5, §6, §7, §8, §9

[24] = biological target: T3, CYP3A4 (Homo sapiens, UniProt P08684); assay: CYP isoforms inhibition; assay type: in vitro ADME; conditions: 5-dose, 3-fold dilution starting at 30 µM
T3 construct: Cambridge Bioscience Limited (ran the assay)
Protocol: as §4, §5, §6, §7, §8, §9

T3 sequence (P08684 whole entry, canonical isoform): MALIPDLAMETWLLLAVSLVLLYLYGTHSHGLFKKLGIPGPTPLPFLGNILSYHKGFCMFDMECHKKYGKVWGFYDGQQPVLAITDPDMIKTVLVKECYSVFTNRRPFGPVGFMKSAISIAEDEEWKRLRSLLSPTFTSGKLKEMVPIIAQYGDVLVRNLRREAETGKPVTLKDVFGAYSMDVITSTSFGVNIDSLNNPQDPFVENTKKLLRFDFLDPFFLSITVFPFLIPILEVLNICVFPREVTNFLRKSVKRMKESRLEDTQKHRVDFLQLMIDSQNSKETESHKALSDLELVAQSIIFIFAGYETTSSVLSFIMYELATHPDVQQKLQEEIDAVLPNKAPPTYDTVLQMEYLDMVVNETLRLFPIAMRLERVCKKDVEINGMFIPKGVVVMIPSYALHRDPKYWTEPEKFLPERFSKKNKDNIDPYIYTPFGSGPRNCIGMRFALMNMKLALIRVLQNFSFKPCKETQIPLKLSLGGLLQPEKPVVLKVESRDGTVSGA
T2 sequence (P10635 whole entry, canonical isoform): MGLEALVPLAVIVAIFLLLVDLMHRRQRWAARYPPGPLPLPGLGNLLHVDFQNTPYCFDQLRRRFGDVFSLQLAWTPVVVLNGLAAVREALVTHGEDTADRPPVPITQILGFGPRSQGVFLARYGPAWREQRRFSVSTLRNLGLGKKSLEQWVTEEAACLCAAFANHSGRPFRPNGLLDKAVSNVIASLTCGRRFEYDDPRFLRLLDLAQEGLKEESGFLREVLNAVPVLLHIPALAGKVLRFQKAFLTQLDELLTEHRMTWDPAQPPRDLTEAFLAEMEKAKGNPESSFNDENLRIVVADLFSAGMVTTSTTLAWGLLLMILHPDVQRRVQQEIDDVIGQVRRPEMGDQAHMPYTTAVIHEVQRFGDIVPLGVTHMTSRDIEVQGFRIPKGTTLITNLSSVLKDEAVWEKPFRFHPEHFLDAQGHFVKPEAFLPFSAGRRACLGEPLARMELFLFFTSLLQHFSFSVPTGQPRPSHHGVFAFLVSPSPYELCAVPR
T1 sequence (P33261 whole entry, canonical isoform): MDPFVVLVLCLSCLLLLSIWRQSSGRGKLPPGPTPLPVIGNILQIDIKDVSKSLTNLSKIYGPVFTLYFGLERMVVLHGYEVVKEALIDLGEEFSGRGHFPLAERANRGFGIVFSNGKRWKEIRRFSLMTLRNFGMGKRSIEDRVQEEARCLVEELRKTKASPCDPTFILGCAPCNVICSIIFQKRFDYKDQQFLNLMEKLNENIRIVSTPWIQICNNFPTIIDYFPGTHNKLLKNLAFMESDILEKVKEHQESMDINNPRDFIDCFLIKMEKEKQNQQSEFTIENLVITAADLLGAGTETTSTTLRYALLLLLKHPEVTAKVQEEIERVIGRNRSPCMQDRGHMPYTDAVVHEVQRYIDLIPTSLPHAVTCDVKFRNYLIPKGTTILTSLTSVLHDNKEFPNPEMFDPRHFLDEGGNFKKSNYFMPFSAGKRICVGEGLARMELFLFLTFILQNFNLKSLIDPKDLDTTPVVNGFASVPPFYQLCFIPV

CC(C)n1c(C2CCNCC2)nc2c([N+](=O)[O-])c(Br)c(Br)cc21 [SEL24-B489, 5,6-dibromo-4-nitro-2-(piperidin-4-yl)-1-(propan-2-yl)-1H-1,3-benzodiazole]
half-life at 1 µM [1]: 2.6 h
half-life at 1 µM [2]: 7.2 h
Kd [3]: 0.15 µM
Kd [4]: 0.01 µM
Kd [5]: 0.016 µM
Kd [6]: 0.53 µM
Kd [7]: 0.011 µM
Kd [8]: 3.2 µM
Kd [9]: 0.037 µM
Kd [10]: 0.012 µM
Kd [11]: 0.0028 µM
S6 (S235/236) phosphorylation [12]: profound inhibition
MCL1 abundance [13]: markedly decreased
STAT5 signaling [13]: completely blocked
apoptosis indicated by PARP cleavage [13]: marked induction of apoptosis
GI50 [14]: 0.097 µM
CC50 ([14]; read-out: LC50): > 10 µM
GI50 [15]: 0.018 µM
Cmax ([16]; 5 mg/kg): 155 ng/mL
Tmax ([16]; 5 mg/kg): 1.75 h
bioavailability ([16]; 5 mg/kg, read-out: F (bioavailability)): 47%
AUC(0-t) [16]: 3080 ng·h/mL
half-life [16]: 17.6 h
viability of MOLM-14 cells with FLT3-TKD mutants versus FLT3-ITD or parental cells [17]: neither of the FLT3 TKD point mutations decreased the cellular sensitivity
GI50 [18]: 0.19 µM
CC50 ([18]; read-out: LC50): 2.16 µM
half-life at 1 µM [19]: 9.9 h
half-life at 1 µM [20]: 21.8 h
GI50 [21]: 0.067 µM
CC50 ([21]; read-out: LC50): 2.44 µM
IC50 [22]: > 70 µM
IC50 [23]: 10 µM
IC50 [24]: > 100 µM
